Here are results for four compounds from patent US20070202515A1, “Promac signature application” (PATHOLOGICA, LLC., priority 2005, published 2007).

Each structure is given as a SMILES string.

The subject of one experiment is cancer. As to conditions: response not universal; cited from earlier work.
Experiment [1] relates to subcutaneous T cell lymphoma. Kind of experiment: Phase I trial of CG-47: clinical response of lymphoma. The format is in vivo, human. The text has this: As part of the clinical development of CG-47, Pathologica performed analysis on blood samples from a subset of patients currently enrolled in a Phase I trial of the safety of the investigational polyamine CG-47. The trial recruited patients who have failed conventional therapy for various lymphomas. The patients received increasing amounts of CG47 for 5 days every three weeks by infusion. The trial was a dose escalation trial in which the first 3 patients received the lowest dose, the next three a higher dose etc. One patient, a person with subcutaneous T cell lymphoma, received 4 doses of 50 mg/m^2 of CG-47 over a 12 week period. […] Relapse of the lymphoma then occurred and a final sample was obtained. Levels of CD14-16++macrophages and the LC5-CI values obtained from the baseline and various subsequent samples are presented in FIG. 10. At presentation the patient had elevated CD14-16% s (˜50%) and a strongly positive LC5-CI score (6.2). After the first cycle of CG-47 the patient entered a clinical remission of their cancer that lasted for the […] of CG-47. During their clinical remission both the CD14-16++ levels and the LC5-CI scores normalized. After the 4th cycle of CG-47 the patient experienced a relapse in their cancer and in the post relapse samples CD14-16++ levels were again elevated (50%) and their LC5-CI value had reverted to a positive score (12.9). […]

For another experiment, the system named is CD14-16++macrophages. Kind of experiment: Levels of CD14-16++ macrophages in patient blood by flow cytometry. The following applies: same patient. The format is in vivo, human. The text has this:
FIG. 10: LC5-CI and Signature values in cutaneous T-cell lymphoma patient—the percent of CD14 cells also staining with antibodies to CD16 by flow cytometry (filled triangles) is plotted (left y axis) along with the LC5-CI (open triangles) determined for the same samples (right y axis). The samples include the baseline sample obtained prior to the administration of the first cycle of CG-47 (baseline, x axis), the samples obtained prior to the patient receiving the 2nd, 3rd, and 4th cycle of CG-47 (cy2, cy3, and cy4, respectively) and the final sample obtained when the patient experienced a relapse (ReLps).
As part of the clinical development of CG-47, Pathologica performed analysis on blood samples from a subset of patients currently enrolled in a Phase I trial of the safety of the investigational polyamine CG-47. The trial recruited patients who have failed conventional therapy for various lymphomas. The patients received increasing amounts of CG47 for 5 days every three weeks by infusion. The trial was a dose escalation trial in which the first 3 patients received the lowest dose, the next three a higher dose etc. One patient, a person with subcutaneous T cell lymphoma, received 4 doses of 50 mg/m^2 of CG-47 over a 12 week period. […] Relapse of the lymphoma then occurred and a final sample was obtained. […]

The test system of experiment [2] is G1P3, GPR43, IFIT2, ORM1, TNFSF10. Kind of experiment: LC5-CI quantitative RT-PCR classification index on PBMCs. It counts as in vivo, human. As to conditions: same patient.
Text: Aliquots of the RNA preparations were then RT-PCR amplified using quantitative real time methods employing a Light-Cycler^36. The signals obtained were normalized against the signal obtained with primers for β-actin according to the formula Ctactin−Ctgene=NSig where Ct=the threshold cycle for the indicated gene and NSig=the normalized signal.
Therefore, we constructed a “weighted voting” scheme using the methods described by Golub and co-workers^37 for 10 of the most promising primer sets. ALS and control patients were divided into training and test sets and the actin normalized signal for each sample with each primer set was determined as described above. Then the voting weights (modified Rs) were calculated using the test samples according to the formula Mod R=(Mean ALS−Mean CON)/(StDev ALS+StDev CON) calculated using 13 ALS samples & 11 controls.
Next the inflection point or the mid point between the ALS and control samples is calculated according to MID=(MeanALS+MeanCON)/2
Then the signal for the individual primer (ICV) is calculated according to ICV=Mod R(Mean NSig−Mid)
The predictive power of the various primers was then evaluated using the test set of samples. […]
For experiment [3] the following is noted: ALS patients; cited from earlier work.

`CC(C=NNC(=N)N)=NNC(=N)N.Cl.Cl.O` [MGBG, Methylglyoxal bis(guanylhydrazone) dihydrochloride hydrate]: the “efficacy against cancer in clinical trials” value with cancer is reported as “some level of efficacy against cancer”.
`CCNCCCNC/C=C\CNCCCNCC.Cl.Cl.Cl.Cl` [CG-47]: the duration of remission result in experiment [1] (began after administration of the first dose, 50 mg/m^2, same patient) is “approximately 10 weeks”. The “clinical response of lymphoma” value in experiment [1] (one patient, 4 doses of 50 mg/m^2 over a 12 week period by infusion) is given as “very significant remission”. Besides, the “CD14-16++ levels in post relapse samples” value with CD14-16++macrophages (relapse after the 4th cycle) was found to be 50%. For the same compound, the “CD14-16++ levels during clinical remission” value in the experiment with CD14-16++macrophages (at presentation elevated (~50%)) is listed as “normalized”. Also, the “LC5-CI value in post relapse samples” value in experiment [2] (relapse after the 4th cycle) is on record as 12.9. Besides, the “LC5-CI scores during clinical remission” value in experiment [2] (at presentation strongly positive (6.2)) is recorded as “normalized”.
Consider `C/C(=N\N=C(N)N)c1cc(NC(=O)CCCCCCCCC(=O)Nc2cc(/C(C)=N/N=C(N)N)cc(/C(C)=N/N=C(N)N)c2)cc(/C(C)=N/N=C(N)N)c1.Cl.Cl.Cl.Cl` [CNI-1493], for which the “efficacy against cancer in clinical trials” value with cancer is “some level of efficacy against cancer”.
Take `Nc1nc2ccc(OC(F)(F)F)cc2s1` [Riluzole]: the “effect on disease progression” value in experiment [3] is reported as “only modest slowing of disease progression”.
